Experimental findings from patent publication US20050070508A1, “Napthalene carboxamides and their derivatives useful as new anti-angiogenic agents” (AGOURON PHARMACEUTICALS, INC., priority 2003, published 2005) are described below.

For test [1], the target named is T1, human vascular endothelial growth factor receptor 2 (VEGF-R2) (Homo sapiens, UniProt P35968, DEL940-989/E990V).
T1 construct: VEGF-R2D50 contains residues 806-939 and 990-1171; made in house; host or cells: baculovirus/insect cell system
T1 sequence (P35968 with tags, fused parts or gaps DEL940-989/E990V limits assumed): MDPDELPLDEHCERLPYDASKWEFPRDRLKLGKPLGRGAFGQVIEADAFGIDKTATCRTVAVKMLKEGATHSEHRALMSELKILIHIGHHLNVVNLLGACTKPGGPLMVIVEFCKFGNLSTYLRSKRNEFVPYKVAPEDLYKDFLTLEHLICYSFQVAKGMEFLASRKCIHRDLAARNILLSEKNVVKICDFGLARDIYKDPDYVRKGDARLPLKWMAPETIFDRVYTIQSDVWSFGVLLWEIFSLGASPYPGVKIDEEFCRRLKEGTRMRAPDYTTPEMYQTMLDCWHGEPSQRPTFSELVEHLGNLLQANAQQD
In words: VEGF-R2 coupled spectrophotometric assay (FLVK). It is filed as biochemical. The following applies: unphosphorylated VEGF-R2D50 (FLVK). The source says:
This construct determines the ability of a test compound to inhibit tyrosine kinase activity. A construct (VEGF-R2D50) of the cytosolic domain of human vascular endothelial growth factor receptor 2 (VEGF-R2) lacking the 50 central residues of the 68 residues of the kinase insert domain was expressed in a baculovirus/insect cell system. Of the 1356 residues of full-length VEGF-R2, VEGF-R2D50 contains residues 806-939 and 990-1171, and also one point mutation (E990V) within the kinase insert domain relative to wild-type VEGF-R2. Autophosphorylation of the purified construct was performed by incubation of the enzyme at a concentration of […] in the presence of 3 mM ATP and 40 mM MgCl2 in 100 mM HEPES, pH 7.5, containing 5% glycerol and 5 mM DTT, at 4° C. for 2 h. […] See Parast et al., Biochemistry, 37, 16788-16801 (1998).
The production of ADP from ATP that accompanies phosphoryl transfer was coupled to oxidation of NADH using phosphoenolpyruvate (PEP) and a system having pyruvate kinase (PK) and lactic dehydrogenase (LDH). The oxidation of NADH was monitored by following the decrease of absorbance at 340 nm (e340=6.22 cm^−1 mM^−1) using a Beckman DU 650 spectrophotometer. Assay conditions for phosphorylated VEGF-R2D50 (indicated as FLVK-P in the tables below) were the following: 1 mM PEP; […]; 50 units of LDH/mL; 20 units of PK/mL; 5 mM DTT; 5.1 mM poly(E4Y1); 1 mM ATP; and 25 mM MgCl2 in 200 mM HEPES, pH 7.5. Assay conditions for unphosphorylated VEGF-R2D50 (indicated as FLVK in the tables) were the following: 1 mM PEP; […]; 50 units of LDH/mL; 20 units of PK/mL; 5 mM DTT; 20 mM poly(E4Y1); 3 mM ATP; and 60 mM MgCl2 and 2 mM MnCl2 in 200 mM HEPES, pH 7.5. Assays were initiated with 5 to 40 nM of enzyme. Ki values were determined by measuring enzyme activity in the presence of varying concentrations of test compounds. The percent inhibition at 50 nm (% inhibition @ 50 nm) was determined by linear least-squares regression analysis of absorbance as a function of time. The binding inhibitions were fitted to equation as described by Morrison. The data were analyzed using Enzyme Kinetic and Kaleidagraph software.

Test [2] relates to human umbilical vein endothelial cells (HUVEC). In words: HUVEC+VEGF Proliferation Assay. It is filed as cell-based. The following applies: VEGF-stimulated proliferation, final VEGF 6 ng/mL, 72 hours, MTT dye reduction. The procedure: This assay determines the ability of a test compound to inhibit the growth factor-stimulated proliferation of human umbilical vein endothelial cells (“HUVEC”). HUVEC cells (passage 3-4, Clonetics, Corp.) were thawed into EGM2 culture medium (Clonetics Corp) in T75 flasks. Fresh EGM2 medium was added to the flasks 24 hours later. Four or five days later, cells were exposed to another culture medium (F12K medium supplemented with 10% fetal bovine serum (FBS), […] endothelial cell growth supplement (ECGS), and 0.1 mg/mL heparin). Exponentially-growing HUVEC cells were used in experiments thereafter. Ten to twelve thousand HUVEC cells were plated in 96-well dishes in […] of rich, culture medium (described above). The cells were allowed to attach for 24 hours in this medium. The medium was then removed by aspiration and […] of starvation media (F12K+1% FBS) was added to each well. After 24 hours, […] of test agent dissolved in 1% DMSO in starvation medium or this vehicle alone was added into each treatment well; the final DMSO concentration was 0.1%. One hour later, […] of VEGF (30 ng/mL) in starvation media was added to all wells except those containing untreated controls; the final VEGF concentration was 6 ng/mL. Cellular proliferation was quantified 72 hours later by MTT dye reduction, at which time cells were exposed for 4 hours MTT (Promega Corp.). Dye reduction was stopped by addition of a stop solution (Promega Corp.) and absorbance at 595 nm was determined on a 96-well spectrophotometer plate reader.
In general terms: Tetrazolium assays rely on reduction of a dye to a coloured formazan, in cell work by metabolically active cells.

Each structure is given as a SMILES string.

Usually Ki stands for the dissociation constant of the complex between target and ligand, obtained from inhibition or displacement. `CNCC1CCN(C(=O)c2cc3nccc(Oc4ccc5c(C(=O)NC)cccc5c4)c3s2)C1` (stereo not shown) [Example 10, N-Methyl-6-{[2-({3-[(methylamino)methyl]pyrrolidin-1-yl}carbonyl)thieno[3,2-b]pyridin-7-yl]oxy}-1-naphthamide]: in test [1], the Ki was < 1 nM.
The term IC50 denotes the concentration that gives 50% inhibition. For `CNC(=O)c1cccc2cc(Oc3ccnc4cc(C(=O)N5CC[C@@H](N(C)C)C5)sc34)ccc12` [Example 5, 6-[(2-{[(3R)-3-(dimethylamino)pyrrolidin-1-yl]carbonyl}thieno[3,2-b]pyridin-7-yl)oxy]-N-methyl-1-naphthamide], in test [1], the inhibitory constant (Ki) was in the range of 1 to 10 nM. Also, the concentration for half-maximal inhibition (IC50) in test [2] fell in the range of 1 to 10 nM.
For the molecule `O=C(NCCN1CCOCC1)c1cccc2cc(Oc3ccnc4cc(C(=O)N5CCC5)sc34)ccc12` [Example 31, 6-[2-(Azetidine-1-carbonyl)-thieno[3,2-b]pyridin-7-yloxy]-naphthalene-1-carboxylic acid (2-morpholin-4-yl-ethyl)-amide], the Ki in test [1] was < 1 nM. In test [2], the half-inhibitory concentration (IC50) lay within 1 to 10 nM.
Turning to `CNC(=O)c1cccc2cc(Oc3ccnc4cc(C(=O)N(C)CCCN(C)C)sc34)ccc12` [Example 7, N-[3-(Dimethylamino)propyl]-N-methyl-7-({5-[(methylamino)carbonyl]-2-naphthyl}oxy)thieno[3,2-b]pyridine-2-carboxamide], the Ki in test [1] was in the range of 1 to 10 nM. The IC50 in test [2] was > 10 nM.
`CNC(=O)c1cccc2c(F)c(Oc3ccnc4cc(C(=O)N(C)C)sc34)ccc12` [Example 2, 7-({1-Fluoro-5-[(methylamino)carbonyl]-2-naphthyl}oxy)-N,N-dimethylthieno[3,2-b]pyridine-2-carboxamide]: the IC50 in test [2] was < 1 nM.
Turning to `CNC(=O)c1cccc2cc(Oc3ccnc4cc(O)ccc34)ccc12` [Example 44, 6-(7-Hydroxy-quinolin-4-yloxy)-naphthalene-1-carboxylic Acid Methylamide], the inhibition constant Ki in test [1] was > 10 nM.
Consider `O=C(NCCN1CCOCC1)c1cccc2cc(Oc3ccnc4ccsc34)ccc12` [Example 15, N-(2-Morpholin-4-ylethyl)-6-(thieno[3,2-b]pyridin-7-yloxy)-1-naphthamide], for which, in test [1], the Ki lay within 1 to 10 nM. In test [2], the IC50 is > 10 nM.
On to `O=C(NCCCN1CCCCC1)c1cccc2cc(Oc3ccnc4ccsc34)ccc12` [Example 36, 6-(Thieno[3,2-b]pyridin-7-yloxy)-naphthalene-1-carboxylic acid (3-piperidin-1-yl-propyl)-amide], for which the inhibitory constant (Ki) in test [1] is > 10 nM.
With `O=C(NCCN1CCOCC1)c1cccc2cc(Oc3ccnc4cc(C(=O)N5CC[C@@H](O)C5)sc34)ccc12` [Example 13, 6-[(2{[(3R)-3-Hydroxypyrrolidin-1-yl]carbonyl}thieno[3,2-b]pyridin-7-yl)oxy]-N-(2-morpholin-4-ylethyl)-1-naphthamide], the inhibition constant Ki in test [1] is < 1 nM. Further, the half-maximal inhibitory concentration (IC50) in test [2] was in the range of 1 to 10 nM.
The molecule `CNC(=O)c1cccc2cc(Oc3ccnc4cc(OC)ccc34)ccc12` [Example 43, 6-(7-Methoxy-quinolin-4-yloxy)-naphthalene-1-carboxylic Acid Methylamide] yielded a Ki in test [1] of 1 to 10 nM. Moreover, the concentration for half-maximal inhibition (IC50) in test [2] was in the range of 1 to 10 nM.
Turning to `CCCCNC(=O)c1cccc2cc(Oc3ccnc4cc(O)ccc34)ccc12` [Example 48, 6-(7-Hydroxy-quinolin-4-yloxy)-naphthalene-1-carboxylic Acid Butylamide], the IC50 in test [2] was in the range of 1 to 10 nM.
Turning to `O=C(NCCCN1CCCC1)c1cccc2cc(Oc3ccnc4ccsc34)ccc12` [Example 37, 6-(Thieno[3,2-b]pyridin-7-yloxy)-naphthalene-1-carboxylic acid (3-pyrrolidin-1-yl-propyl)-amide], the Ki in test [1] was > 10 nM.
In the case of `O=C(NCCCN1CCOCC1)c1cccc2cc(Oc3ccnc4cc(C(=O)N5CCC5)sc34)ccc12` [Example 32, 6-[2-(Azetidine-1-carbonyl)-thieno[3,2-b]pyridin-7-yloxy]-naphthalene-1-carboxylic acid (3-morpholin-4-yl-propyl)-amide], the Ki in test [1] is < 1 nM. For the same molecule, the 50% inhibitory concentration (IC50) in test [2] fell in the range of 1 to 10 nM.
As for `CNC(=O)c1cccc2c(F)c(Oc3ccnc4cc(C(=O)N5CC[C@H](OC)C5)sc34)ccc12` [Example 1, 5-Fluoro-6-[(2-{[(3S)-3-methoxypyrrolidin-1-yl]carbonyl}thieno[3,2-b]pyridin-7-yl)oxy]-N-methyl-1-naphthamide], the inhibitory constant (Ki) in test [1] was < 1 nM. Besides, the IC50 in test [2] was < 1 nM.
Turning to `COc1ccc2c(Oc3ccc4c(C(=O)NC5CC5)cccc4c3)ccnc2c1` [Example 51, 6-(7-Methoxy-quinolin-4-yloxy)-naphthalene-1-carboxylic acid cyclopropylamide], the inhibitory constant (Ki) in test [1] was < 1 nM. Moreover, in test [2], the half-maximal inhibitory concentration (IC50) lay within 1 to 10 nM.
For the molecule `COc1ccc2c(Oc3ccc4c(C(=O)NC(C)C)cccc4c3)ccnc2c1` [Example 50, 6-(7-Methoxy-quinolin-4-yloxy)-naphthalene-1-carboxylic Acid Isopropylamide], the inhibition constant Ki in test [1] lay in the range of 1 to 10 nM. Moreover, the concentration for half-maximal inhibition (IC50) in test [2] is > 10 nM.
In test [1], `CNC(=O)c1cccc2cc(Oc3ccnc4cc(OCCN5CCCCC5)ccc34)ccc12` [Example 46, 6-[7-(2-Piperidin-1-yl-ethoxy)-quinolin-4-yloxy]-naphthalene-1-carboxylic Acid Methylamide] showed an inhibition constant (Ki) of 1 to 10 nM. Further, the IC50 in test [2] was < 1 nM.
For `CN(C)CCNC(=O)c1cccc2cc(Oc3ccnc4ccsc34)ccc12` [Example 41, 6-(Thieno[3,2-b]pyridin-7-yloxy)-naphthalene-1-carboxylic acid (2-dimethylamino-ethyl)-amide], the Ki in test [1] is > 10 nM.
For the molecule `CCCCNC(=O)c1cccc2cc(Oc3ccnc4cc(OC)ccc34)ccc12` [Example 47, 6-(7-Methoxy-quinolin-4-yloxy)-naphthalene-1-carboxylic Acid Butylamide], the 50% inhibitory concentration (IC50) in test [2] was > 10 nM.
With `CNC(=O)c1cccc2cc(Oc3ccnc4cc(C(=O)N(C)CCN(C)C)sc34)ccc12` [Example 6, N-[2-(Dimethylamino)ethyl]-N-methyl-7-({5-[(methylamino)carbonyl]-2-naphthyl}oxy)thieno[3,2-b]pyridine-2-carboxamide], the Ki in test [1] was < 1 nM. The 50% inhibitory concentration (IC50) in test [2] was > 10 nM.
On the same counts, the results for `Cn1ccnc1-c1cc2nccc(Oc3ccc4c(C(=O)NCCN5CCOCC5)cccc4c3)c2s1` [Example 14, 6-{[2-(1-Methyl-1H-imidazol-2-yl)thieno[3,2-b]pyridin-7-yl]oxy}-N-(2-morpholin-4-ylethyl)-1-naphthamide] are < 1 nM and 1 to 10 nM.
In turn, `COCCNC(=O)c1cccc2cc(Oc3ccnc4cc(C(=O)N5CC[C@@H](N(C)C)C5)sc34)ccc12` [Example 11, 6-[(2-{[(3R)-3-(Dimethylamino)pyrrolidin-1-yl]carbonyl}thieno[3,2-b]pyridin-7-yl)oxy]-N-(2-methoxyethyl)-1-naphthamide] returned a Ki in test [1] of 1 to 10 nM.
Still for that read-out and setting: then `O=C(NCCN1CCOCC1)c1cccc2cc(Oc3ncnc4ccsc34)ccc12` [Example 52, N-(2-Morpholin-4-ylethyl)-6-(thieno[3,2-d]pyrimidin-4-yloxy)-1-naphthamide], with > 10 nM.
Turning to `CN(C)[C@@H]1CCN(C(=O)c2cc3nccc(Oc4ccc5c(C(=O)NC6CC6)cccc5c4)c3s2)C1` [Example 9, N-Cyclopropyl-6-[(2-{[(3R)-3-(dimethylamino)pyrrolidin-1-yl]carbonyl}thieno[3,2-b]pyridin-7-yl)oxy]-1-naphthamide], the inhibitory constant (Ki) in test [1] is < 1 nM.
